pIC50: −log10 of the molar value.
Columns and labels:
[1] = test system: platelet rich plasma (PRP); assay: Platelet aggregation test (platelet rich plasma), thrombin-induced; type: cell-based; settings: human PRP, thrombin at minimum concentration causing maximum aggregation; test compound concentration not given
Description: Platelet Aggregation Test (Platelet Rich Plasma)
Using a syringe filled in advance with 3.8% sodium citrate solution (Chitral: Yamanouchi Pharmaceutical Co., Ltd.), its 9-fold volume of venous blood was taken from healthy volunteers. After blood sampling, the blood was centrifuged at room temperature, 2700 G for […] and 15 min to give platelet rich plasma (PRP) and platelet poor plasma (PPP), respectively. PRP was applied to an automated blood cell counter (Sysmex) to adjust the platelet count to 300,000/μL, and fibrin polymerization inhibitory peptide was added thereto to a final concentration of 4 mM. The platelet aggregation rate was measured using an aggregometer (Kowa). To be specific, 200 μL of PRP was placed in a cuvette with a microstirrer, preheated at 37° C. for 2 min, and a test compound solution (20 μL) was added. The mixture was further preheated at 37° C. for 2 min with stirring (1000 rpm), thrombin (20 μL) was added, and changes in the transmittance caused by platelet aggregation were recorded over time. Thrombin was used at a minimum concentration causing maximum aggregation, and the aggregation suppressive rate (%) was calculated from the ratio of the maximum aggregation rate with addition of test compound to the maximum aggregation rate of control group. The test compound was dissolved in dimethyl sulfoxide and diluted with saline before use.

[2] = target: T1, human PAR-1 (Homo sapiens, UniProt P25116); assay: GTPγS binding assay with membrane fraction of human PAR-1-expressing cells; type: biochemical; settings: [35S]-GTPγS binding to human PAR-1-expressing cell membrane fraction; agonist peptide SFLLRN-NH2
T1 construct: expressed in transfected cells; host or cells: CHO-K1 (transformant flag/trn/CHO-K1)
T1 sequence (P25116 22-425): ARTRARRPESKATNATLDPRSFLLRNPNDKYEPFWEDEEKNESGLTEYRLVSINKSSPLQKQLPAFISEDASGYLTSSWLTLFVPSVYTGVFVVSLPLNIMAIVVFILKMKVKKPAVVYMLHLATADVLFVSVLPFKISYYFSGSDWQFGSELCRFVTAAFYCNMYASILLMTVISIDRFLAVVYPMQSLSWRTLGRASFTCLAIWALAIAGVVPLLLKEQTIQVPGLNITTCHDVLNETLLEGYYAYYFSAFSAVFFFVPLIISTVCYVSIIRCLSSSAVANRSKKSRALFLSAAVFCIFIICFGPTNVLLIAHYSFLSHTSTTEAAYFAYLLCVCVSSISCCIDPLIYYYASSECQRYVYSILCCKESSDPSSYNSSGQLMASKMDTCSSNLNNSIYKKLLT
Description: The preparation method of the membrane fraction used for the GTPγS binding assay is shown below.
Human PAR-1-expressing cells were inoculated to an F500 flask at 1.8×10^5 cells/flask, and the cells were cultured for 2 days. The cells were detached with saline containing 0.02% EDTA. The cells were centrifuged (2000 rpm, 10 min), cell pellets were re-suspended in 12 ml of homogenate buffer (10 mM NaHCO3, 1 mM EDTA, protease inhibitor cocktail, pH 7.4), and homogenized by Polytron™. The residual cells were removed by centrifugation (2000 rpm, 10 min), and the supernatant was ultracentrifuged (Beckman Instruments 70 Ti type rotor, 30000 rpm, 1 hr) to give a membrane fraction of human PAR-1-expressing cells in a sediment, which was preserved at −80° C. and dissolved before use for an assay.
The measurement method of the GTPγS binding activity is shown below.
Then, the reaction mixture was filtered through a GF/C filter, washed 4 times with 300 μL of saline, and the radioactivity of the filter was measured by a TopCount scintillation counter.
The concentration (IC50 value) of the test compound necessary for inhibiting the GTPγS binding activity by 50% was calculated using PRISM3.0 (PraphPad software).

[3] = target: T1, human PAR-1; assay: Evaluation of PAR-1 antagonistic action by intracellular calcium concentration variation assay (FLIPR); type: cell-based; settings: human PAR-1-expressing CHO cells, agonist peptide SFLLRN-NH2 final concentration 0.3 nM, Fluo-3AM
Description: Evaluation of PAR-1 Antagonistic Action of Compound by Intracellular Calcium Concentration Variation Assay
Human PAR-1-expressing cells was plated at 3×10^4 cells/well on a 96 well clear bottom plate (Corning 3904 type) and cultured for 16-24 hr. The medium was removed from the wells of the plate, measurement buffer (50 μL, 115 mM NaCl, 5.4 mM KCl, 1.8 mM CaCl2, 0.8 mM MgCl2, 13.8 mM D-glucose, 0.1% BSA, 20 mM HEPES, pH 7.4) containing 2.5 μg/mL of Fluo-3AM (manufactured by Dojindo Laboratories), 0.08% Pluronic F-127 and 2.5 mM Probenecid was added to the cells and the mixture was reacted at 37° C. for 1 hr. The cells were washed twice with the measurement buffer. After addition of the measurement buffer (100 μL), a measurement buffer (50 μL) containing a test compound was added, and the mixture was stood still for 10 min. The plate was moved to a fluorometry image-plate reader (FLIPR-1, manufactured by Molecular Devices). […] The intracellular calcium concentration was measured by FLIPR.

Row | pIC50 [3] | melting point | SMILES | aggregation suppressive rate (%) [1] | IC50 [2]
1 | – | – | CCCc1c(C(=O)NCc2ccc(OC)cc2)nnn1-c1ccc(NC(C)=O)cc1 [Compound 2] | 39% | 2.1 µM
2 | – | – | CCCc1c(C(=O)NC2CC2)nnn1-c1ccc(NC(C)=O)cc1 [Compound 1, 1-[4-(acetylamino)phenyl]-N-cyclopropyl-5-propyl-1H-1,2,3-triazole-4-carboxamide, reference compound] | 66% | 1.9 µM
3 | – | – | CCCc1c(C(=O)NCCOc2ccccc2)nnn1-c1ccc(NC(C)=O)cc1 [Compound 3] | – | 1.9 µM
4 | 6.13 | 192 °C | CCNC(=O)c1ccc(-n2nnc(C(=O)NC3CC3)c2CSC)cc1 [Example 129, N-cyclopropyl-1-{4-[(ethylamino)carbonyl]phenyl}-5-[(methylthio)methyl]-1H-1,2,3-triazole-4-carboxamide] | – | –

From patent US7803822B2, “Triazole derivative and use thereof” (Takeda Pharmaceutical Company Limited, priority 2005, dated 2010)
